These results are taken from publication PMC3844044 (Journal of medicinal chemistry, 2013).

Data set [1] has as its system bortezomib-resistant THP-1 cell line (BTZ500). Nature of the data set: Cell viability, bortezomib-resistant THP-1 cell line. Type of data set: cell-based, human.
A further data set relates to proteasome. The conditions noted are these: read-out: reported IC50 for proteasome inhibition; cited from earlier work.
The conditions of data set [2]: conversion to inactive aromatic imidazole 5; ref 13b; cited from earlier work.
Data set [3] concerns the target purified human 20S proteasome (Homo sapiens, UniProt P28074). Kind of data set: Inhibition of the chymotryptic-like activity of purified human 20S proteasome. It is filed as biochemical.
In data set [4] the test system is NF-κB mediated gene transcription. The conditions noted are these: read-out: NF-κB-luc IC50; Table 1; cell culture, previously reported; cited from earlier work.
The test system of data set [5] is human myelomonocytic THP-1 cells. Kind of data set: Cell viability, THP-1 wild type cells, 72 hours. It is filed as cell-based. The conditions noted are these: screened at 10 μM and 5 μM.

As usually defined, the IC50 is the concentration needed to halve the response being measured. Take `CC(C)C[C@H](NC(=O)[C@H](Cc1ccccc1)NC(=O)c1cnccn1)B(O)O` [Bortezomib, bortezomib, reference compound]: the “% cell viability Resistant” value in data set [1] (BTZ500, bortezomib at 0.5 μM, 72 hours) is “unable to induce significant cytotoxicity”. Further, in the data set with proteasome, the IC50 is […].

Consider `c1ccc(CN2C(c3ccccc3)=N[C@H](c3ccccc3)[C@H]2c2ccccc2)cc1` [compound 2], for which the stability upon standing entry in data set [2] is “slowly isomerised and dehydrogenated”.

As to `c1ccc(CN2C(c3ccccc3)=N[C@@H](c3ccccc3)[C@H]2c2ccccc2)cc1` [compound 3], in data set [2], the stability upon standing result is “slowly isomerised and dehydrogenated”. Moreover, the “proteasome inhibitory activity (in words)” value in data set [3] is on record as “depleted of activity”. Moreover, in data set [4], the IC50 is more than 10000 nM.

Turning to `c1ccc(CN2CCN=C2c2ccccc2)cc1` [compound 4], in data set [3], the “proteasome inhibitory activity (in words)” value is “depleted of activity”. Moreover, the IC50 in data set [4] was more than 10000 nM.

For the molecule `c1ccc(Cn2c(-c3ccccc3)nc(-c3ccccc3)c2-c2ccccc2)cc1` [compound 5], the “proteasome inhibitory activity (in words)” value in data set [3] was “depleted of activity”. In data set [4], the IC50 is more than 10000 nM.

Consider `CCOC(=O)[C@]1(c2ccccc2)N=C(c2ccccc2)N[C@@H]1c1ccccc1` [compound 11], for which the “proteasome inhibitory activity (in words)” value in data set [3] was “depleted of all activity”.

On to `CCOC(=O)[C@]1(c2ccccc2)N=C(c2ccccc2)N(C(C)=O)[C@@H]1c1ccccc1` [compound 12], for which the “proteasome inhibitory activity (in words)” value in data set [3] is listed as “depleted of activity”.

Consider `CCOC(=O)[C@]1(c2ccccc2)N=C(c2ccccc2)N(C(=O)c2ccccc2)[C@@H]1c1ccccc1` [compound 13], for which the “proteasome inhibitory activity (in words)” value in data set [3] is on record as “depleted of activity”.

With `CCOC(=O)[C@]1(c2ccccc2)N=C(c2ccccc2)N(S(=O)(=O)c2ccc(C)cc2)[C@@H]1c1ccccc1` [compound 14], in data set [3], the “proteasome inhibitory activity (in words)” value was “depleted of activity”.

For the molecule `CCOC(=O)[C@]1(c2ccccc2)N=C(c2ccccc2)N(Cc2ccccc2)[C@@H]1c1ccncc1` [compound 20], the “proteasome inhibitory activity (in words)” value in data set [3] is “inactive”.

In turn, `CCOC(=O)[C@]1(c2ccccc2)N=C(c2ccccc2)N(Cc2ccccc2)[C@@H]1c1ccc(NCc2ccccc2)cc1` [compound 29] returned an IC50 in data set [3] (IC50 proteasome inhibition) of 500 nM.

Regarding `CCOC(=O)[C@]1(c2ccccc2)N=C(c2ccc(OC)cc2)N(Cc2ccccc2)[C@@H]1c1ccc(N)cc1` [compound 37], the “cytotoxic activity (in words), bortezomib-resistant BTZ500” value in data set [1] (screened at 10 μM and 5 μM) is recorded as “weak cytotoxic activity”. In addition, the “cytotoxic activity (in words), THP-1 wild type” value in data set [5] was “weak cytotoxic activity”.
